Experimental data from the kinase profiling compilation of Christmann-Franck et al. (2016).

What was measured:
Assay in all cases: KINOMEscan competition binding
Settings in all cases: compound 10.0 µM
MAPKAPK2 (human) = MAPKAPK2 (human) (UniProt P49137)
IKBKB (human) = IKBKB (human) (UniProt O14920)
MYLK2 (human) = MYLK2 (human) (UniProt Q9H1R3)
FYN (human) = FYN (human) (UniProt P06241)
DCLK2 (human) = DCLK2 (human) (UniProt Q8N568)
EPHB2 (human) = EPHB2 (human) (UniProt P29323)
MKNK1 (human) = MKNK1 (human) (UniProt Q9BUB5)
WEE1 (human) = WEE1 (human) (UniProt P30291)
[1] = target: TYK2 JH1 catalytic (human) (UniProt P29597)
Chain of TYK2 JH1 catalytic (human) (P29597 whole entry, looked up): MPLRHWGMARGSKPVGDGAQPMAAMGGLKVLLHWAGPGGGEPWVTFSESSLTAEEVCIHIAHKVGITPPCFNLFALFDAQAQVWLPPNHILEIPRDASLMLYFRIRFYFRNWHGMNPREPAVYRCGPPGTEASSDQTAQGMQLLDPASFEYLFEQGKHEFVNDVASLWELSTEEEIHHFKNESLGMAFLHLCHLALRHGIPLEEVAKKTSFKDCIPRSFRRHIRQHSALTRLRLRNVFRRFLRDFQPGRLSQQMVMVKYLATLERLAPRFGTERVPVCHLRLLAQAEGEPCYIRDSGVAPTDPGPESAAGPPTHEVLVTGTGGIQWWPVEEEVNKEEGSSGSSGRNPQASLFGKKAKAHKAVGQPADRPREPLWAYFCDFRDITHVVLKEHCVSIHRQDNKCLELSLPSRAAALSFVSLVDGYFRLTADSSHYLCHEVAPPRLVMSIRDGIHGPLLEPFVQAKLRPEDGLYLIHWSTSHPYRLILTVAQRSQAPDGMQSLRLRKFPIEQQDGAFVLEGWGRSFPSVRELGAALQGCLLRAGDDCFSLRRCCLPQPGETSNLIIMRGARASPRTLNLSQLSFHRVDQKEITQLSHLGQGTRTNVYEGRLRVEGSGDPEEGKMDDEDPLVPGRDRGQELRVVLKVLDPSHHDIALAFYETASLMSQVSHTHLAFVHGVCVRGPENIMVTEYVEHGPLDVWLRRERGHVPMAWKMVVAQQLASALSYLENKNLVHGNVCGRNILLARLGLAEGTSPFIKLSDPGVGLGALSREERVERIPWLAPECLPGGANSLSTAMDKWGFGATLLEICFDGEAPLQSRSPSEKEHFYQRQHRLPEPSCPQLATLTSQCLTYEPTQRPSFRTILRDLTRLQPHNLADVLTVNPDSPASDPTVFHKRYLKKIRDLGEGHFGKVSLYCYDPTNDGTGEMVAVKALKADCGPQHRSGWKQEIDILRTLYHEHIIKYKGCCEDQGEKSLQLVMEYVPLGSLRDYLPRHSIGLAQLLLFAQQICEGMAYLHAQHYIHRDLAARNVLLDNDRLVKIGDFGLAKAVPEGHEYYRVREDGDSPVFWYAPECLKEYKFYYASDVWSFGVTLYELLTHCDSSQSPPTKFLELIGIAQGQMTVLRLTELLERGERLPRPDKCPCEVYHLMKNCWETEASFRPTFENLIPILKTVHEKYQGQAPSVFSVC

TAOK3 (human) = TAOK3 (human) (UniProt Q9H2K8)
STK17A (human) = STK17A (human) (UniProt Q9UEE5)
RPS6KA2 KD1 (human) = RPS6KA2 KD1 (human) (UniProt Q15349)
CSNK1G1 (human) = CSNK1G1 (human) (UniProt Q9HCP0)
Chain of CSNK1G1 (human) (Q9HCP0 whole entry, looked up): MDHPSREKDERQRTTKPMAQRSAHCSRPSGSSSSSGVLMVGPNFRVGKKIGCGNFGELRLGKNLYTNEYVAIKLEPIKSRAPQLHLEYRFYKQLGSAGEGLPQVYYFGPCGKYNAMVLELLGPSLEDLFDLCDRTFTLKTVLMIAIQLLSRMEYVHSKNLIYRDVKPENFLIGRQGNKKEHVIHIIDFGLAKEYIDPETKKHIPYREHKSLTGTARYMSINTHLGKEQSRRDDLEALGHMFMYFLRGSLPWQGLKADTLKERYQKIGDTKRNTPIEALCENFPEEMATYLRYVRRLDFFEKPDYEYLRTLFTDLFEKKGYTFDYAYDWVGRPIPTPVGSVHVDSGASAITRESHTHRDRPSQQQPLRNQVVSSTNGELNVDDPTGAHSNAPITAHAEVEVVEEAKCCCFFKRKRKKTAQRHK

CDK18 (human) = CDK18 (human) (UniProt Q07002)
PRKD2 (human) = PRKD2 (human) (UniProt Q9BZL6)
STK11 (human) = STK11 (human) (UniProt Q15831)
Chain of STK11 (human) (Q15831 whole entry, looked up): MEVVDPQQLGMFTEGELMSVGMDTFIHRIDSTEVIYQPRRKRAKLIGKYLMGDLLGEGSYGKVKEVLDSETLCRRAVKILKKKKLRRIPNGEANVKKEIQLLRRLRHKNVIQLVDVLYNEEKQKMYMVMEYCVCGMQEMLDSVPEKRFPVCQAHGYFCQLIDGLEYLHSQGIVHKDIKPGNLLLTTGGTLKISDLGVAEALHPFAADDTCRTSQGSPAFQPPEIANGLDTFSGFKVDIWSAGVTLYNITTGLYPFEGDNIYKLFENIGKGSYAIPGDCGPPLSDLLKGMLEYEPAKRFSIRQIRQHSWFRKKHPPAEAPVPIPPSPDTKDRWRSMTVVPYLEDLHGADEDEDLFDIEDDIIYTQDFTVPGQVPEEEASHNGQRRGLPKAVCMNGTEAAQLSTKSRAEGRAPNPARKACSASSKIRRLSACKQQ

RIOK3 (human) = RIOK3 (human) (UniProt O14730)
CDC42BPG (human) = CDC42BPG (human) (UniProt Q6DT37)
ACVRL1 (human) = ACVRL1 (human) (UniProt P37023)
Chain of ACVRL1 (human) (P37023 whole entry, looked up): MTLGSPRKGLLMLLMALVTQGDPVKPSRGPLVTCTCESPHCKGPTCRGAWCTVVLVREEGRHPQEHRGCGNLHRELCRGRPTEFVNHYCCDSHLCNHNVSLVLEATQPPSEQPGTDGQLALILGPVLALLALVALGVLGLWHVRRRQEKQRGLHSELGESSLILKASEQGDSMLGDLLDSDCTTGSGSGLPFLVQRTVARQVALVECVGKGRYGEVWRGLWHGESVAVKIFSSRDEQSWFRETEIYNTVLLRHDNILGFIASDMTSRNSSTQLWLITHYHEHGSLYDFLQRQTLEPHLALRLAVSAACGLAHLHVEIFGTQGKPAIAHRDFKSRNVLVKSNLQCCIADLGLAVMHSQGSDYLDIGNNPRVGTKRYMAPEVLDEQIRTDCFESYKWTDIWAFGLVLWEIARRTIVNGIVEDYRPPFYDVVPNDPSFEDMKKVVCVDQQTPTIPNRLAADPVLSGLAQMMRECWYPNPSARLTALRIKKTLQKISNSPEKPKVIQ

RPS6KA1 KD2 (human) = RPS6KA1 KD2 (human) (UniProt Q15418)
TTK (human) = TTK (human) (UniProt P33981)
CHUK (human) = CHUK (human) (UniProt O15111)
SGK110 (human) = SGK110 (human) (UniProt P0C264)
PDGFRB (human) = PDGFRB (human) (UniProt P09619)
TNK2 (human) = TNK2 (human) (UniProt Q07912)
[2] = target: JAK1 JH1 catalytic (human) (UniProt P23458)
PRKACA (human) = PRKACA (human) (UniProt P17612)
BRSK1 (human) = BRSK1 (human) (UniProt Q8TDC3)
CAMK2A (human) = CAMK2A (human) (UniProt Q9UQM7)
STK33 (human) = STK33 (human) (UniProt Q9BYT3)
MAP3K11 (human) = MAP3K11 (human) (UniProt Q16584)
MAP3K10 (human) = MAP3K10 (human) (UniProt Q02779)
PLK1 (human) = PLK1 (human) (UniProt P53350)
Chain of PLK1 (human) (P53350 whole entry, looked up): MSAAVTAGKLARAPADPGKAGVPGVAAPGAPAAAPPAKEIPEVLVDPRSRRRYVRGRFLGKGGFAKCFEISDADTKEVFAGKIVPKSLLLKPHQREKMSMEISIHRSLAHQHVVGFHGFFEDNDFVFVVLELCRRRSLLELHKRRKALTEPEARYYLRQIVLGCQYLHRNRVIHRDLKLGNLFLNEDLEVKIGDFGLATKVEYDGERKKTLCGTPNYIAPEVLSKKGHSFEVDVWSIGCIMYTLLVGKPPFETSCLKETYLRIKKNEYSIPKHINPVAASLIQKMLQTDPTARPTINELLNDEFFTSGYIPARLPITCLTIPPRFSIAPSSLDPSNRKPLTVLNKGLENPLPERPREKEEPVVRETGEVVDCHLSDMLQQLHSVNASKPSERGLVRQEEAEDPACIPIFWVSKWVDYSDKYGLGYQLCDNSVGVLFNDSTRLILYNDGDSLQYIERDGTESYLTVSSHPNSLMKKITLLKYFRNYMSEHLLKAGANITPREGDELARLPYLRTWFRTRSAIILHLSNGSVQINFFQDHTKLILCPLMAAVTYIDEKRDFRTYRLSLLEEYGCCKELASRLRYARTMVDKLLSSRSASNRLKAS

SRPK1 (human) = SRPK1 (human) (UniProt Q96SB4)
CDK7 (human) = CDK7 (human) (UniProt P50613)
MAPK9 (human) = MAPK9 (human) (UniProt P45984)
CDK15 (human) = CDK15 (human) (UniProt Q96Q40)
Chain of CDK15 (human) (Q96Q40 whole entry, looked up): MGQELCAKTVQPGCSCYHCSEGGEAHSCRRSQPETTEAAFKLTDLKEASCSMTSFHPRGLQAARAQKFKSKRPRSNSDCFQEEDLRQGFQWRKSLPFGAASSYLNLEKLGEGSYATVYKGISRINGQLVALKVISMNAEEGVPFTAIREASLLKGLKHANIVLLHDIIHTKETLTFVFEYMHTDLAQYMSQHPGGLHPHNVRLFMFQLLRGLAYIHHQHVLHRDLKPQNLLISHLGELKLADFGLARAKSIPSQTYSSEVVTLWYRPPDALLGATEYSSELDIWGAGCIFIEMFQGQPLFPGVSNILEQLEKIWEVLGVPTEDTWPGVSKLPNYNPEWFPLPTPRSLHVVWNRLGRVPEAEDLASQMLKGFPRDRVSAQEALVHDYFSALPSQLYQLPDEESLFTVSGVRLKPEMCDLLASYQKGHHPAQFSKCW

NTRK2 (human) = NTRK2 (human) (UniProt Q16620)
Chain of NTRK2 (human) (Q16620 whole entry, looked up): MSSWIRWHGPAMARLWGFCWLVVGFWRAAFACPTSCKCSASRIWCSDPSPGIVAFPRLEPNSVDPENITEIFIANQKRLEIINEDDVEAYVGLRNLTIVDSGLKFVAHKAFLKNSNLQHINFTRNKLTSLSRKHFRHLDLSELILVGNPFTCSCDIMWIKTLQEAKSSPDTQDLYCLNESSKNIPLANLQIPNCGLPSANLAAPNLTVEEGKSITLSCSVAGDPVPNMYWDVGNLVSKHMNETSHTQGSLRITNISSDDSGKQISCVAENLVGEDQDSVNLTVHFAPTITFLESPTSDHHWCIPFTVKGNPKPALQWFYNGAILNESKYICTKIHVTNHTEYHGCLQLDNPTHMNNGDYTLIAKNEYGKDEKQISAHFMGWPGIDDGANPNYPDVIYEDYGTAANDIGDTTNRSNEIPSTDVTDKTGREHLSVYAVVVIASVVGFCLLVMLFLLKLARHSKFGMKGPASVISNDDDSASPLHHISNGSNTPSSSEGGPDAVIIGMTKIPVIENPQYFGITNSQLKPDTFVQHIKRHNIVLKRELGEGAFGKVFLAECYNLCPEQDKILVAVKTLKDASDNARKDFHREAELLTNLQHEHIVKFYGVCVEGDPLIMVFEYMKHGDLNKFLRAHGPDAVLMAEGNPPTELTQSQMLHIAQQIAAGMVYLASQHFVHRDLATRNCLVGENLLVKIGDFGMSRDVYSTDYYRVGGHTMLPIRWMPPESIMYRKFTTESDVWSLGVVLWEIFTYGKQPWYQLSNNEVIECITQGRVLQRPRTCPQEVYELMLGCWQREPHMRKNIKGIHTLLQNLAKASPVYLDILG

MAP2K2 (human) = MAP2K2 (human) (UniProt P36507)
MAPK4 (human) = MAPK4 (human) (UniProt P31152)

Chain of FYN (human) (P06241 whole entry, looked up): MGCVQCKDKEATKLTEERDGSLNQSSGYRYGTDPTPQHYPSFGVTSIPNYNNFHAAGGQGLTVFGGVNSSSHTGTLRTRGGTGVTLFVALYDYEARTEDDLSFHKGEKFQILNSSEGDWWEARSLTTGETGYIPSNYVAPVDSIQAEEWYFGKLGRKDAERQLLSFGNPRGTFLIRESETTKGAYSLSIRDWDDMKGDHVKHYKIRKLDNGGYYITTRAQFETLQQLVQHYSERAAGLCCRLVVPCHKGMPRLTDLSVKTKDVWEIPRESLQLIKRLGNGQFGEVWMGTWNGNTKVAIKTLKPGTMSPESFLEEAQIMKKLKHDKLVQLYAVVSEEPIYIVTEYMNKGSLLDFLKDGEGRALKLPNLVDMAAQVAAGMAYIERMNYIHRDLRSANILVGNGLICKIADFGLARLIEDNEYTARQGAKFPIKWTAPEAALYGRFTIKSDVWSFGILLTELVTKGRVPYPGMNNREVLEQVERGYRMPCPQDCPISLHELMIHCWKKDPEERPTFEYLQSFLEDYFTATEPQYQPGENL

SMILES | kinase still bound, per cent of control (MAPKAPK2 (human)) | kinase still bound, per cent of control (IKBKB (human)) | kinase still bound, per cent of control (MYLK2 (human)) | kinase still bound, per cent of control (FYN (human)) | kinase still bound, per cent of control (DCLK2 (human)) | kinase still bound, per cent of control (EPHB2 (human)) | kinase still bound, per cent of control (MKNK1 (human)) | kinase still bound, per cent of control (WEE1 (human)) | kinase still bound, per cent of control [1] | kinase still bound, per cent of control (TAOK3 (human)) | kinase still bound, per cent of control (STK17A (human)) | kinase still bound, per cent of control (RPS6KA2 KD1 (human)) | kinase still bound, per cent of control (CSNK1G1 (human)) | kinase still bound, per cent of control (CDK18 (human)) | kinase still bound, per cent of control (PRKD2 (human)) | kinase still bound, per cent of control (STK11 (human)) | kinase still bound, per cent of control (RIOK3 (human)) | kinase still bound, per cent of control (CDC42BPG (human)) | kinase still bound, per cent of control (ACVRL1 (human)) | kinase still bound, per cent of control (RPS6KA1 KD2 (human)) | other results
C=CC(=O)Nc1cccc(Oc2nc(Nc3ccc(N4CCN(C)CC4)cc3OC)ncc2Cl)c1 | 100% | 100% | 100% | 100% | 0.45% | 100% | 100% | 100% | 100% | 100% | 1.6% | 16% | 100% | 100% | 15% | 100% | 20% | 100% | 100% | 100% | kinase still bound, per cent of control (TTK (human)): 2%; kinase still bound, per cent of control (CHUK (human)): 100%; kinase still bound, per cent of control (SGK110 (human)): 100%; kinase still bound, per cent of control (PDGFRB (human)): 11%; kinase still bound, per cent of control (TNK2 (human)): 18%; kinase still bound, per cent of control [2]: 100%; kinase still bound, per cent of control (PRKACA (human)): 100%; kinase still bound, per cent of control (BRSK1 (human)): 100%; kinase still bound, per cent of control (CAMK2A (human)): 100%; kinase still bound, per cent of control (STK33 (human)): 1.3%; kinase still bound, per cent of control (MAP3K11 (human)): 100%; kinase still bound, per cent of control (MAP3K10 (human)): 100%; kinase still bound, per cent of control (PLK1 (human)): 16%; kinase still bound, per cent of control (SRPK1 (human)): 21%; kinase still bound, per cent of control (CDK7 (human)): 35%; kinase still bound, per cent of control (MAPK9 (human)): 100%; kinase still bound, per cent of control (CDK15 (human)): 100%; kinase still bound, per cent of control (NTRK2 (human)): 100%; kinase still bound, per cent of control (MAP2K2 (human)): 100%; kinase still bound, per cent of control (MAPK4 (human)): 100%
COc1cc(C(=O)NC2CCN(C)CC2)ccc1Nc1ncc2c(n1)N(C1CCCC1)C(C)CC(=O)N2C (stereo not given) | 100% | 100% | 100% | 100% | 19% | 100% | 100% | 100% | 100% | 100% | 100% | 100% | 100% | 100% | 100% | 100% | 100% | 100% | 100% | 22% | kinase still bound, per cent of control (TTK (human)): 4.6%; kinase still bound, per cent of control (CHUK (human)): 100%; kinase still bound, per cent of control (SGK110 (human)): 100%; kinase still bound, per cent of control (PDGFRB (human)): 100%; kinase still bound, per cent of control (TNK2 (human)): 100%; kinase still bound, per cent of control [2]: 100%; kinase still bound, per cent of control (PRKACA (human)): 100%; kinase still bound, per cent of control (BRSK1 (human)): 100%; kinase still bound, per cent of control (CAMK2A (human)): 21%; kinase still bound, per cent of control (STK33 (human)): 3.6%; kinase still bound, per cent of control (MAP3K11 (human)): 100%; kinase still bound, per cent of control (MAP3K10 (human)): 100%; kinase still bound, per cent of control (PLK1 (human)): 19%; kinase still bound, per cent of control (SRPK1 (human)): 100%; kinase still bound, per cent of control (CDK7 (human)): 100%; kinase still bound, per cent of control (MAPK9 (human)): 100%; kinase still bound, per cent of control (CDK15 (human)): 100%; kinase still bound, per cent of control (NTRK2 (human)): 100%; kinase still bound, per cent of control (MAP2K2 (human)): 100%; kinase still bound, per cent of control (MAPK4 (human)): 100%
